Results on 6 molecules are retold here after ChEMBL document CHEMBL1629685, “Macrolide and clindamycin resistance in Streptococcus milleri group isolates from the airways of cystic fibrosis patients” (2010).

Common to all, as to assay type: functional
The test system of assay [1] is Streptococcus intermedius. The assay is described as follows: Antimicrobial activity against Streptococcus intermedius obtained from patient with cystic fibrosis assessed as non-susceptible isolates grown on mueller-Hinton blood agar at 30 ug/ml after 24 hrs at 37 degC by disk diffusion method in presence of 5% defribinated sheep blood.
The test system of assay [2] is Streptococcus intermedius. The assay can be described thus: Antimicrobial activity against invasive Streptococcus intermedius obtained from non-cystic fibrosis patient assessed as non-susceptible isolates grown on mueller-Hinton blood agar at 30 ug/ml after 24 hrs at 37 degC by disk diffusion method in presence of 5% defribinated sheep blood.
Assay [3] concerns Streptococcus constellatus. The assay is described as follows: Antimicrobial activity against invasive Streptococcus constellatus obtained from non-cystic fibrosis patient assessed as non-susceptible isolates grown on mueller-Hinton blood agar at 30 ug/ml after 24 hrs at 37 degC by disk diffusion method in presence of 5% defribinated sheep blood.
In assay [4] the test system is Streptococcus constellatus. The assay can be described thus: Antimicrobial activity against Streptococcus constellatus obtained from patient with cystic fibrosis assessed as non-susceptible isolates grown on mueller-Hinton blood agar at 30 ug/ml after 24 hrs at 37 degC by disk diffusion method in presence of 5% defribinated sheep blood.
Assay [5] deals with Streptococcus anginosus. The assay is described as follows: Antimicrobial activity against Streptococcus anginosus obtained from patient with cystic fibrosis assessed as non-susceptible isolates grown on mueller-Hinton blood agar at 30 ug/ml after 24 hrs at 37 degC by disk diffusion method in presence of 5% defribinated sheep blood.
For assay [6], the system named is Streptococcus anginosus. The assay is described as follows: Antimicrobial activity against Streptococcus anginosus obtained from patient with cystic fibrosis assessed as non-susceptible isolates grown on brain heart infusion agar at 15 ug/ml after 24 hrs at 37 degC by disk diffusion method.
The test system of assay [7] is Streptococcus intermedius. The assay is described as follows: Antimicrobial activity against invasive Streptococcus intermedius obtained from non-cystic fibrosis patient assessed as non-susceptible isolates grown on brain heart infusion agar at 15 ug/ml after 24 hrs at 37 degC by disk diffusion method.
The subject of assay [8] is Streptococcus constellatus. The assay can be described thus: Antimicrobial activity against Streptococcus constellatus obtained from patient with cystic fibrosis assessed as non-susceptible isolates grown on brain heart infusion agar at 15 ug/ml after 24 hrs at 37 degC by disk diffusion method.
For assay [9], the system named is Streptococcus anginosus. The assay is described as follows: Antimicrobial activity against invasive Streptococcus anginosus obtained from non-cystic fibrosis patient assessed as non-susceptible isolates grown on mueller-Hinton blood agar at 15 ug/ml after 24 hrs at 37 degC by disk diffusion method in presence of 5% defribinated sheep blood.
The test system of assay [10] is Streptococcus anginosus. The assay can be described thus: Antimicrobial activity against invasive Streptococcus anginosus obtained from non-cystic fibrosis patient assessed as non-susceptible isolates grown on brain heart infusion agar at 15 ug/ml after 24 hrs at 37 degC by disk diffusion method.
Assay [11] has as its system Streptococcus anginosus. The assay can be described thus: Antimicrobial activity against Streptococcus anginosus obtained from patient with cystic fibrosis assessed as non-susceptible isolates grown on mueller-Hinton blood agar at 15 ug/ml after 24 hrs at 37 degC by disk diffusion method in presence of 5% defribinated sheep blood.
Assay [12] relates to Streptococcus constellatus. The assay is described as follows: Antimicrobial activity against Streptococcus constellatus obtained from patient with cystic fibrosis assessed as non-susceptible isolates grown on mueller-Hinton blood agar at 15 ug/ml after 24 hrs at 37 degC by disk diffusion method in presence of 5% defribinated sheep blood.
Assay [13] relates to Streptococcus intermedius. The assay is described as follows: Antimicrobial activity against Streptococcus intermedius obtained from patient with cystic fibrosis assessed as non-susceptible isolates grown on brain heart infusion agar at 15 ug/ml after 24 hrs at 37 degC by disk diffusion method.
The test system of assay [14] is Streptococcus intermedius. The assay can be described thus: Antimicrobial activity against Streptococcus intermedius obtained from patient with cystic fibrosis assessed as non-susceptible isolates grown on mueller-Hinton blood agar at 15 ug/ml after 24 hrs at 37 degC by disk diffusion method in presence of 5% defribinated sheep blood.
Assay [15] deals with Streptococcus constellatus. The assay is described as follows: Antimicrobial activity against invasive Streptococcus constellatus obtained from non-cystic fibrosis patient assessed as non-susceptible isolates grown on brain heart infusion agar at 15 ug/ml after 24 hrs at 37 degC by disk diffusion method.
Assay [16] relates to Streptococcus intermedius. The assay can be described thus: Antimicrobial activity against invasive Streptococcus intermedius obtained from non-cystic fibrosis patient assessed as non-susceptible isolates grown on mueller-Hinton blood agar at 15 ug/ml after 24 hrs at 37 degC by disk diffusion method in presence of 5% defribinated sheep blood.
The subject of assay [17] is Streptococcus constellatus. The assay can be described thus: Antimicrobial activity against invasive Streptococcus constellatus obtained from non-cystic fibrosis patient assessed as non-susceptible isolates grown on mueller-Hinton blood agar at 15 ug/ml after 24 hrs at 37 degC by disk diffusion method in presence of 5% defribinated sheep blood.
For assay [18], the system named is Streptococcus constellatus. The assay is described as follows: Antimicrobial activity against Streptococcus constellatus obtained from patient with cystic fibrosis assessed as non-susceptible isolates grown on brain heart infusion agar at 30 ug/ml after 24 hrs at 37 degC by disk diffusion method.
The subject of assay [19] is Streptococcus anginosus. The assay is described as follows: Antimicrobial activity against Streptococcus anginosus obtained from patient with cystic fibrosis assessed as non-susceptible isolates grown on brain heart infusion agar at 30 ug/ml after 24 hrs at 37 degC by disk diffusion method.
Assay [20] has as its system Streptococcus constellatus. The assay is described as follows: Antimicrobial activity against invasive Streptococcus constellatus obtained from non-cystic fibrosis patient assessed as non-susceptible isolates grown on brain heart infusion agar at 30 ug/ml after 24 hrs at 37 degC by disk diffusion method.
The test system of assay [21] is Streptococcus intermedius. The assay is described as follows: Antimicrobial activity against invasive Streptococcus intermedius obtained from non-cystic fibrosis patient assessed as non-susceptible isolates grown on brain heart infusion agar at 30 ug/ml after 24 hrs at 37 degC by disk diffusion method.
For assay [22], the system named is Streptococcus anginosus. The assay is described as follows: Antimicrobial activity against invasive Streptococcus anginosus obtained from non-cystic fibrosis patient assessed as non-susceptible isolates grown on brain heart infusion agar at 30 ug/ml after 24 hrs at 37 degC by disk diffusion method.
Assay [23] deals with Streptococcus intermedius. The assay can be described thus: Antimicrobial activity against Streptococcus intermedius obtained from patient with cystic fibrosis assessed as non-susceptible isolates grown on brain heart infusion agar at 30 ug/ml after 24 hrs at 37 degC by disk diffusion method.
In assay [24] the test system is Streptococcus anginosus. The assay is described as follows: Antimicrobial activity against invasive Streptococcus anginosus obtained from non-cystic fibrosis patient assessed as non-susceptible isolates grown on mueller-Hinton blood agar at 30 ug/ml after 24 hrs at 37 degC by disk diffusion method in presence of 5% defribinated sheep blood.
Assay [25] relates to Streptococcus constellatus. The assay can be described thus: Antimicrobial activity against invasive Streptococcus constellatus obtained from non-cystic fibrosis patient assessed as non-susceptible isolates grown on mueller-Hinton blood agar at 2 ug/ml after 24 hrs at 37 degC by disk diffusion method in presence of 5% defribinated sheep blood.
The test system of assay [26] is Streptococcus intermedius. The assay can be described thus: Antimicrobial activity against Streptococcus intermedius obtained from patient with cystic fibrosis assessed as non-susceptible isolates grown on mueller-Hinton blood agar at 2 ug/ml after 24 hrs at 37 degC by disk diffusion method in presence of 5% defribinated sheep blood.
Assay [27] has as its system Streptococcus anginosus. The assay can be described thus: Antimicrobial activity against invasive Streptococcus anginosus obtained from non-cystic fibrosis patient assessed as non-susceptible isolates grown on brain heart infusion agar at 2 ug/ml after 24 hrs at 37 degC by disk diffusion method. The note with it: at 2 µg/mL.
Assay [28] has as its system Streptococcus anginosus. The assay can be described thus: Antimicrobial activity against Streptococcus anginosus obtained from patient with cystic fibrosis assessed as non-susceptible isolates grown on brain heart infusion agar at 2 ug/ml after 24 hrs at 37 degC by disk diffusion method. The note with it: at 2 µg/mL.
Assay [29] concerns Streptococcus intermedius. The assay is described as follows: Antimicrobial activity against invasive Streptococcus intermedius obtained from non-cystic fibrosis patient assessed as non-susceptible isolates grown on brain heart infusion agar at 2 ug/ml after 24 hrs at 37 degC by disk diffusion method. The settings on record: at 2 µg/mL.
Assay [30] deals with Streptococcus anginosus. The assay is described as follows: Antimicrobial activity against Streptococcus anginosus obtained from patient with cystic fibrosis assessed as non-susceptible isolates grown on mueller-Hinton blood agar at 2 ug/ml after 24 hrs at 37 degC by disk diffusion method in presence of 5% defribinated sheep blood.
The subject of assay [31] is Streptococcus intermedius. The assay is described as follows: Antimicrobial activity against Streptococcus intermedius obtained from patient with cystic fibrosis assessed as non-susceptible isolates grown on brain heart infusion agar at 2 ug/ml after 24 hrs at 37 degC by disk diffusion method. The note with it: at 2 µg/mL.
Assay [32] relates to Streptococcus constellatus. The assay is described as follows: Antimicrobial activity against invasive Streptococcus constellatus obtained from non-cystic fibrosis patient assessed as non-susceptible isolates grown on brain heart infusion agar at 2 ug/ml after 24 hrs at 37 degC by disk diffusion method. The note with it: at 2 µg/mL.
Assay [33] has as its system Streptococcus intermedius. The assay is described as follows: Antimicrobial activity against invasive Streptococcus intermedius obtained from non-cystic fibrosis patient assessed as non-susceptible isolates grown on mueller-Hinton blood agar at 2 ug/ml after 24 hrs at 37 degC by disk diffusion method in presence of 5% defribinated sheep blood.
Assay [34] has as its system Streptococcus constellatus. The assay can be described thus: Antimicrobial activity against Streptococcus constellatus obtained from patient with cystic fibrosis assessed as non-susceptible isolates grown on mueller-Hinton blood agar at 2 ug/ml after 24 hrs at 37 degC by disk diffusion method in presence of 5% defribinated sheep blood.
For assay [35], the system named is Streptococcus anginosus. The assay is described as follows: Antimicrobial activity against invasive Streptococcus anginosus obtained from non-cystic fibrosis patient assessed as non-susceptible isolates grown on mueller-Hinton blood agar at 2 ug/ml after 24 hrs at 37 degC by disk diffusion method in presence of 5% defribinated sheep blood.
Assay [36] concerns Streptococcus constellatus. The assay is described as follows: Antimicrobial activity against Streptococcus constellatus obtained from patient with cystic fibrosis assessed as non-susceptible isolates grown on brain heart infusion agar at 2 ug/ml after 24 hrs at 37 degC by disk diffusion method. The settings on record: at 2 µg/mL.

As to `CN(C)[C@@H]1C(O)=C(C(N)=O)C(=O)[C@@]2(O)C(O)=C3C(=O)c4c(O)cccc4[C@@](C)(O)[C@H]3C[C@@H]12` [TETRACYCLINE], the Activity in assay [1] amounted to 0%; in [2] it was 0%; in assay [3], 33.3%; in [4], 0%; in assay [5], 27.5%.

Consider `CC[C@H]1OC(=O)[C@H](C)[C@@H](O[C@H]2C[C@@](C)(OC)[C@@H](O)[C@H](C)O2)[C@H](C)[C@@H](O[C@@H]2O[C@H](C)C[C@H](N(C)C)[C@H]2O)[C@](C)(O)C[C@@H](C)CN(C)[C@H](C)[C@@H](O)[C@]1(C)O` [AZITHROMYCIN], for which the Activity in assay [6] turned out to be 56.5%; in [7] it was 16.7%; in [8], 65%; in assay [9] it was 11.1%; in [10], 0%; in assay [11] it was 60%. The Activity in [12] was 20%; in assay [13] it was 34.4%; in assay [14], 50%; in assay [15] it was 7.7%; in assay [16], 28.6%; in [17], 0%.

`CO/N=C(\C(=O)N[C@@H]1C(=O)N2C(C(=O)[O-])=C(C[N+]3(C)CCCC3)CS[C@H]12)c1csc(N)n1`: the Activity in assay [1], in [18], in assay [2], in assay [3], in assay [4] and in assay [19] was 0% throughout. Moreover, the Activity in [20] worked out at 0%; in assay [21], 0%; in assay [5], 2.5%; in assay [22] it was 0%; in assay [23], 3.1%; in assay [24], 0%.

`CC[C@H]1OC(=O)[C@H](C)[C@@H](O[C@H]2C[C@@](C)(OC)[C@@H](O)[C@H](C)O2)[C@H](C)[C@@H](O[C@@H]2O[C@H](C)C[C@H](N(C)C)[C@H]2O)[C@](C)(O)C[C@@H](C)C(=O)[C@H](C)[C@@H](O)[C@]1(C)O` [ERYTHROMYCIN]: the Activity is recorded as 52.2% in assay [6]; 16.7% in assay [7]; 65% in [8]; 11.1% in assay [9]; 11.1% in [10]; 57.5% in assay [11]. Moreover, the Activity in assay [12] came to 20%; in assay [13] it was 34.4%; in assay [14], 50%; in [15], 7.7%; in assay [16], 28.6%; in assay [17], 0%.

For `CO/N=C(\C(=O)N[C@@H]1C(=O)N2C(C(=O)O)=C(CSc3nc(=O)c(O)nn3C)CS[C@H]12)c1csc(N)n1` [CEFTRIAXONE], the Activity in [1], in assay [2], in assay [3], in assay [4], in assay [5] and in assay [24] was 0% throughout.

Consider `CCC[C@@H]1C[C@@H](C(=O)N[C@@H]([C@H]2O[C@H](SC)[C@H](O)[C@@H](O)[C@H]2O)[C@H](C)Cl)N(C)C1` [CLINDAMYCIN], for which the Activity is reported as 0% in assay [25]; 50% in assay [26]; 0% in assay [27]; 56.5% in [28]; 12.5% in assay [29]; 52.5% in assay [30]. The Activity is listed as 28.1% in [31]; 0% in [32]; 28.6% in assay [33]; 20% in assay [34]; 0% in assay [35]; 62.5% in assay [36].
